Results taken from patent publication US5932709A (University of Michigan, priority 1997, dated 1999).
Values after ≈ are worked out from the molar mass of the structure shown. “Also recorded” adds a separate entry of the source. Structures can show the parent of a compound that is named as a salt.

How the values were obtained:
[1] = Water solubility in phosphate buffered saline (spectrophotometric assay); type: physicochemical; details: aqueous buffer; water solubility; PBS pH 7.5, room temperature, 24 hr
Protocol: Approximately 5 mg of test compound was suspended in 1 mL of PBS in a 1.5 mL cryovial. The suspensions were mixed continuously on a Thermolyne vari-mix at room temperature for 24 hr. The suspensions were then centrifuged at 14000×g for 2 minutes to separate the undissolved materials. The supernatant fluids were diluted appropriately with PBS and the ultraviolet spectrums were recorded on a Beckman 640 DU spectrophotometer. For comparison, a standard stock (2 mg/mL in DMSO) solution was prepared for each analog. The ultraviolet spectrum of a 20 of 40 μg/mL standard working solution was measured. The water solubility of each analog was calculated based on the following formula:
Cunknown =Cstandard ×(Aunknown
where Cunknown is the concentration of the unknown solution to be determined; Cstandard is the concentration of the standard working solution (either 20 or 40 μg/mL); Astandard is the absorbance at 350 nm of the standard working solution; DDilution is the appropriate dilution factor used so that the absorbance of the unknown working solution is within the dynamic range of the UV spectrophotometer (less than 2 absorbance units).

[2] = biological target: T1, human placental topoisomerase I (Homo sapiens, UniProt P11387); assay: Inhibition of topoisomerase I catalytic activity (relaxation of supercoiled SV40 DNA); type: biochemical; details: highest concentration tested (100 μg/mL), in words
T1 construct: purchased TopoGen; host or cells: human placenta
T1 sequence (P11387 1-765): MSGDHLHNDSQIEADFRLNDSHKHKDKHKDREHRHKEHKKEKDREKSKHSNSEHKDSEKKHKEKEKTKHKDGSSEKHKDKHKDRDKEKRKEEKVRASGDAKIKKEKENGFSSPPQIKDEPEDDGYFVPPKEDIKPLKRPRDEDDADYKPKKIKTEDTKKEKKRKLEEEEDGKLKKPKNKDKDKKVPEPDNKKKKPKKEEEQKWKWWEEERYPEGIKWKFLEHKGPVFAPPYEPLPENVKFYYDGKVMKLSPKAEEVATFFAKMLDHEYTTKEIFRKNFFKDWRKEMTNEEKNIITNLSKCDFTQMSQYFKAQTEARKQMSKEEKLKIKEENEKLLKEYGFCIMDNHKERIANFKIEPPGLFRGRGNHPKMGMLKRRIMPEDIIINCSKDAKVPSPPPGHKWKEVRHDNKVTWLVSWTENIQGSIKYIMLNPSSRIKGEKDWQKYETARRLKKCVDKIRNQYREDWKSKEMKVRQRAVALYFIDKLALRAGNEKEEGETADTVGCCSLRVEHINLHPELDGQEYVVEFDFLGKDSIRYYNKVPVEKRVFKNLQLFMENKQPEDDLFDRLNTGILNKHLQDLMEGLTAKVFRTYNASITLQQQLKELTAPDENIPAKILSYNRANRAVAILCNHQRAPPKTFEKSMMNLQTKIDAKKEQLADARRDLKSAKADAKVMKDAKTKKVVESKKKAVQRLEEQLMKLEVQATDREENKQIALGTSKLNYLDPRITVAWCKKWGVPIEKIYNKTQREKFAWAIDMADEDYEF
Protocol: The topoisomerase I catalytic activity was measured by converting the supercoiled SV40 DNA (Form I) to the relaxed form (Form Io). All reactions were performed in 20 μL reaction buffer (Tris-HCl, 10 mM, pH 7.5; EDTA, 1 mM; NaCl, 100 mM) with 0.25 μg SV40 DNA, 0.5 unit of human placental topoisomerase I (TopoGen) and graded concentrations of the analog tested. The reaction mixtures were incubated at 37° C. for 30 minutes. […] Ten μL of the reaction mixture was loaded onto a 1% agarose gel prepared in TAE buffer containing 2 μg/mL chloroquine; and the electrophoresis was performed at 82 volt for 4.5 hr in the TAE buffer containing 2 μg/mL chloroquine. […] The gels were then stained with 0.5 μg/mL ethidium bromide solution for 30 min or longer (if chloroquine is present during the electrophoresis step), and destained with 5 changes of deionized water. […] The DNA bands (image) on the negative were densitometrically scanned with a Molecular Dynamic Personal Densitometer. The percent inhibition of Toposiomerase I activity is calculated based on the following equation:
% Inhibition=(FSC(E+D) -FSC(E))/(FSC(C)
where FSC(E+D) represents fraction of supercoiled DNA in the presence of enzyme and drug; FSC(E) represents fraction of supercoiled DNA in the presence of enzyme alone; FSC(C) represents fraction of supercoiled DNA in the untreated SV40 DNA; the IC50 value was estimated using the same four-parameter logistic equation described in the in vitro growth inhibition studies.

[3] = test system: tumor cells; assay: MTT growth inhibition across tumor cell lines (P388, P388/CPT, B16, HT-29, MCF-7M); type: cell-based; details: vs camptothecin
Protocol: (§1) [See "Rapid Colorimetric Assay For Cellular Growth And Survival: Application To Proliferation And Cytotoxicity Assays," J. Immun. Meth. 65:55 (1983)]. The assay utilizes a tetrazolium salt to quantitatively measure mammalian cell survival and proliferation by colorimetric methods. In particular, MTT, a pale yellow compound with minimal absorbance, is incubated with cancerous cells in addition to (or in the absence of) a particular camptothecin analog. Living cells with active mitochondrial enzymes metabolize the MTT into a dark blue/purple formazan product with high absorbance. The exact procedure used to test the camptothecin analogs of the present invention is described below.
Exponentially growing cells (1-2×10^3 cells, unless specified otherwise) in 0.1 mL medium were seeded on day 0 in a 96-well microtiter plate. On day 1, 0.1 mL aliquots of medium containing graded concentrations of test analogs were added to the cell plates. After incubation at 37° C. in a humidified incubator for 3 days (P388, P388/CPT, B16) or 6 days (HT-29, MCF-7M), the plates were centrifuged briefly and 100 μL of the growth medium was removed. Cell cultures were incubated with 50 μL of 3-(4,5-dimethylthiazol-2-yl)-2,5-diphenyl-tetrazolium bromide [MTT, 1 mg/mL in Dulbecco's phosphate buffered saline (PBS)] for 4 hr at 37° C. The resulting purple formazan precipitate was solubilized with 200 μL of 0.04 N HCl in isopropyl alcohol. Absorbance was monitored in a BioRad Model 3550 Microplate Reader at a test wavelength of 570 nm and a reference wavelength of 630 nm. The absorbance is transferred to a PC 486 computer. The IC50 values were determined by a computer program (EZ-ED50) that fits all of the data to the following four-parameter logistic equation: […]

[4] = cited from earlier work
[5] = test system: topoisomerase I; details: in words; hydrochloride; cited from earlier work
[6] = as hydrochloride trihydrate; cited from earlier work
[7] = test system: carcinoma cells; details: in words; hydrochloride; cited from earlier work
[8] = test system: tumor growth; details: in words; cited from earlier work
[9] = test system: P388/CPT CPT-resistant murine leukemia cells; assay: MTT growth inhibition, P388/CPT; type: cell-based; details: Mus musculus, 72 h, 3 days, read-out: Growth Inhibitory Activity IC50
Protocol: (§2) Camptothecin was used as a control to test the anti-cancer efficacy of the novel camptothecin analogs of the present invention.
(§3) Murine B16 melanoma cell line was grown in RPMI 1640 medium supplemented with 10% heat-inactivated fetal bovine serum, 2 mM L-glutamine, 50 units/mL penicillin, 50 μg/mL streptomycin, 25 μg/mL gentamicin, 0.75% sodium bicarbonate 10 mM HEPES buffer (pH 7.4), and 0.06 mg/mL AntiPPLO. Murine P388 leukemic cell line and human HT-29 colon adenocarcinoma line were maintained in RPMI 1640 medium supplemented with 10% heat-inactivated fetal bovine serum. […] MCF-7M human breast adenocarcinoma was maintained in IMEM supplemented with 5% non heat-inactivated fetal bovine serum and 1 nM insulin.
as §1
(§4) Exponentially growing cells (1-2×10^3 cells, unless specified otherwise) in 0.1 mL medium were seeded on day 0 in a 96-well microtiter plate. On day 1, 0.1 mL aliquots of medium containing graded concentrations of test analogs were added to the cell plates. After incubation at 37° C. in a humidified incubator for 3 days (P388, P388/CPT, B16) or 6 days (HT-29, MCF-7M), the plates were centrifuged briefly and 100 μL of the growth medium was removed. Cell cultures were incubated with 50 μL of 3-(4,5-dimethylthiazol-2-yl)-2,5-diphenyl-tetrazolium bromide [MTT, 1 mg/mL in Dulbecco's phosphate buffered saline (PBS)] for 4 hr at 37° C. The resulting purple formazan precipitate was solubilized with 200 μL of 0.04 N HCl in isopropyl alcohol. Absorbance was monitored in a BioRad Model 3550 Microplate Reader at a test wavelength of 570 nm and a reference wavelength of 630 nm. The absorbance is transferred to a PC 486 computer. The IC50 values were determined by a computer program (EZ-ED50) that fits all of the data to the following four-parameter logistic equation:
(§5) Y=(Amax -Amin)/(1+[X/IC^50 ])^n +Amin
(§6) where Amax is the absorbance of control cells, Amin is the absorbance of cells in the presence of highest agent concentration, IC^50 is the concentration of agent that inhibits the cell growth by 50% of control cells (based on the absorbance) and n is the slope of the curve.

[10] = test system: P388 murine leukemia cells; assay: MTT growth inhibition, P388; type: cell-based; details: Mus musculus, 72 h, 3 days, read-out: Growth Inhibitory Activity IC50
Protocol: as §2, §3, §1, §4, §5, §6

[11] = test system: MCF-7 human breast tumor cells; assay: MTT growth inhibition, MCF-7; type: cell-based; details: MCF7, 144 h, MCF-7, MTT, 6 days, read-out: Growth Inhibitory Activity IC50
Protocol: as §2, §3, §1, §4, §5, §6

[12] = test system: B16 murine melanoma cells; assay: MTT growth inhibition, B16; type: cell-based; details: Mus musculus, 72 h, 3 days, read-out: Growth Inhibitory Activity IC50
Protocol: as §2, §3, §1, §4, §5, §6

[13] = test system: HT-29 human colon adenocarcinoma cells; assay: MTT growth inhibition, HT-29; type: cell-based; details: 144 h, HT-29, MTT, 6 days, read-out: Growth Inhibitory Activity IC50
Protocol: as §2, §3, §1, §4, §5, §6

In the case of `CCCCCC(=O)O[C@]1(CC)C(=O)OCc2c1cc1n(c2=O)Cc2cc3ccccc3nc2-1` [HAR2, camptothecin 20-n-hexanoate], the solubility at 24 h [1] is reported as 2.9 µg/mL (≈ 6.49 µM), the “topoisomerase I inhibition” value [2] is reported as “Neither the acetate (HAR3) nor the hexanoate (HAR2) inhibited the topoisomerase I activity” and the “reduction of growth inhibitory activity” value [3] is reported as about 100 fold.
For `CC[C@@](O)(C(=O)O)c1cc2n(c(=O)c1CO)Cc1cc3ccccc3nc1-2` [sodium salt of camptothecin], the anti-cancer efficacy ([4]; sodium salt vs unmodified camptothecin, clinical trials) is given as “much less than unmodified camptothecin”.
In the case of `CCc1c2c(nc3ccc(OC(=O)N4CCC(N5CCCCC5)CC4)cc13)-c1cc3c(c(=O)n1C2)COC(=O)[C@]3(O)CC` [CPT-11, 7-ethyl-10-[4-(piperidino)-1-piperidino]carboxylcamptothecin hydrochloride], the “inhibition of Topoisomerase I activity” value [5] is given as “inability to inhibit Topoisomerase I activity; also recorded: lack of topoisomerase I inhibitory activity”, the water solubility [6] is given as 32000 µg/mL and the “in vitro efficacy / activity” value [7] is given as “negligible in vitro activity”. The “effectiveness against tumor growth in animal studies” value [8] was “significant in vivo preclinical activity”.
Compound `CC[C@@]1(O)C(=O)OCc2c1cc1n(c2=O)Cc2cc3ccccc3nc2-1` [camptothecin, reference compound] has a solubility at 24 h [1] of 20 µg/mL (≈ 57.4 µM), an IC50 [9] of 1.12 µg/mL (≈ 3.22 µM) and an IC50 [10] of 0.01 µg/mL (≈ 0.0287 µM). For the same compound, the IC50 [11] was 0.001 µg/mL (≈ 0.00287 µM), the IC50 [12] was 0.015 µg/mL (≈ 0.0431 µM) and the IC50 [13] was 0.002 µg/mL (≈ 0.00574 µM). For the same compound, the “side effects in human clinical studies” value ([4]; human, in vivo) was “vomiting and diarrhea to myelosuppression and hemorrhagic cystitis” and the “effectiveness against tumor growth in animal studies” value [8] was “significant efficacy in animal tumor models”.
With `CC[C@@]1(OC(C)=O)C(=O)OCc2c1cc1n(c2=O)Cc2cc3ccccc3nc2-1` [HAR3] the solubility at 24 h [1] was 6.5 µg/mL (≈ 16.6 µM), the “topoisomerase I inhibition” value [2] was “Neither the acetate (HAR3) nor the hexanoate (HAR2) inhibited the topoisomerase I activity” and the “reduction of growth inhibitory activity” value [3] was “approximately 10 fold”.
